Tests used:
LigE = target: T1, LigE (Sphingobium sp. SYK-6, UniProt P27457); experiment: chiral HPLC of MPHPV conversion; type: biochemical; conditions: 400 µM racemic MPHPV; 5 mM GSH; 50 mM Tris-HCl pH 7.5; 30 °C; 60 min
T1 construct: full length in pET-16b (pET08660), His-tagged, E. coli BL21(DE3), His SpinTrap purified
T1 sequence (P27457 1-281 limits assumed): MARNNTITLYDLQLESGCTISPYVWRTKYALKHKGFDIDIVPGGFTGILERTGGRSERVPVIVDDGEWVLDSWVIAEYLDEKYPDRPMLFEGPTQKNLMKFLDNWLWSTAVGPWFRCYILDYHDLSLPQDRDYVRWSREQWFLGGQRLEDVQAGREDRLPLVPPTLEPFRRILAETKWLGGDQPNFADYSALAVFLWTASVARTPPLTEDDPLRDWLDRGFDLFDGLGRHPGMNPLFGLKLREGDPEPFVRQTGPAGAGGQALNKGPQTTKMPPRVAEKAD

LigF = target: T2, LigF (Sphingobium sp. SYK-6, UniProt P30347); experiment: chiral HPLC of MPHPV conversion; type: biochemical; conditions: 400 µM racemic MPHPV; 5 mM GSH; 50 mM Tris-HCl pH 7.5; 30 °C; 60 min
T2 construct: full length in pET-16b (pET08650), His-tagged, E. coli BL21(DE3), His SpinTrap purified
T2 sequence (P30347 1-257): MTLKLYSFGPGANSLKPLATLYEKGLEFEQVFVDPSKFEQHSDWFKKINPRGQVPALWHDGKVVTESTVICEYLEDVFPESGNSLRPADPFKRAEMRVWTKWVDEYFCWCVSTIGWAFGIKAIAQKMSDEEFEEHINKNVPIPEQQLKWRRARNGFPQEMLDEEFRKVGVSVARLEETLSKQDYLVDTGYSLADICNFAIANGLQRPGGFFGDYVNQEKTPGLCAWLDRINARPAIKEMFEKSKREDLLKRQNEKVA

| SMILES | chiral HPLC of MPHPV conversion (LigE) | chiral HPLC of MPHPV conversion (LigF) |
| --- | --- | --- |
| COc1cc(C(=O)[C@@H](CO)Oc2ccccc2OC)ccc1O [(βR)-MPHPV] | LigF and LigE completely converted (βS)-MPHPV and (βR)-MPHPV, respectively | – |
| COc1cc(C(=O)[C@H](CO)Oc2ccccc2OC)ccc1O [(βS)-MPHPV] | – | LigF and LigE completely converted (βS)-MPHPV and (βR)-MPHPV, respectively |
